# Source: patent US5229381A, “Substituted azetidinones as anti-inflammatory and antidegenerative agents” (Merck & Co., Inc., priority 1991, dated 1993)
# Target: T1, human polymorphonuclear leukocyte elastase (Homo sapiens, UniProt P08246)
# T1 construct: Crude extract of human polymorphonuclear leukocytes (PMN) containing elastase activity; endogenous in cells; host or cells: human polymorphonuclear leukocytes (crude extract)
# T1 sequence (P08246 30-247 limits assumed): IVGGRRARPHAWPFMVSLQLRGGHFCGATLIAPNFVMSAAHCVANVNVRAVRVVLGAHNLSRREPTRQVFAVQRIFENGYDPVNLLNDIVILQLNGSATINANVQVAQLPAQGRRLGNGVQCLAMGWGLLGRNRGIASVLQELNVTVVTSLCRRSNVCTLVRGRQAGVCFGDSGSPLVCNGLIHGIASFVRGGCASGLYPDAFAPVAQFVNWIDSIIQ
# Test: Inhibition of human polymorphonuclear leukocyte (granulocyte) elastase via hydrolysis of Boc-AAPAN or Boc-AAPVN
# Type: biochemical
# Settings: Table I; 2 min after time zero; crude PMN extract, pH 7.5
row,"ID50, effective dosage for 50% inhibition of the enzyme activity two minutes after time zero",Structure (SMILES)
1,3000 µg/mL,CC(=O)OC1CC(=O)N1C(C)=O (stereo not shown) [Table I: H; H; OCOCH3; COCH3]
2,10000 µg/mL,"CC(=O)N1C(=O)CC1[S+](C)[O-] (stereo not shown) [Table I: H; H; SOCH3; COCH3, 1-acetyl-4-methylsulfinylazetidine-2-one]"

row,Structure (SMILES),"ID50, effective dosage for 50% inhibition of the enzyme activity two minutes after time zero"
1,CCC1C(=O)N(C(C)=O)C1OC(C)=O (stereo not shown) [Table I: H; C2 H5; OCOCH3; COCH3],100 µg/mL

# Same assay, conditions: Table I; read-out: Ki, concentration of the inhibitor giving 50% of the control enzyme activity
row,Structure (SMILES),Ki
1,CCO[C@@H]1[C@@H](CC)C(=O)N1C(C)=O (relative stereo) [Table I: H; C2 H5 (trans); OC2 H5; COCH3],11.9 µM
2,CCC1C(=O)N(C(C)=O)C1OC(C)=O (stereo not shown) [Table I: H; C2 H5; OCOCH3; COCH3],0.36 µM
3,CC[C@H]1C(=O)N(S(=O)(=O)c2ccc(C)cc2)[C@H]1C(=O)N(C)CC(=O)O (relative stereo),22 µM
4,CC[C@H]1C(=O)N(C(C)=O)[C@@H]1Oc1ccccc1 (relative stereo) [Table I: H; C2 H5 (trans); OPh; COCH3],4.3 µM
5,CCC1C(=O)N(C(=O)CCC(=O)O)C1OC(C)=O (stereo not shown),1.43 µM

# Same assay, conditions: pH 7.5, Table I; read-out: kobs/I, second order rate constant of inactivation of the enzyme
row,kinact/KI,Structure (SMILES)
1,1550 M⁻¹ s⁻¹,CC[C@H]1C(=O)N(S(=O)(=O)c2ccc(C)cc2)[C@H]1C(=O)OCC(=O)O (relative stereo)
2,1500 M⁻¹ s⁻¹,CCC[C@H]1C(=O)N(C(=O)OCC)[C@@H]1OCC(=O)O (relative stereo)
3,512 M⁻¹ s⁻¹,CCOC(=O)N1C(=O)[C@H](CC)[C@H]1OCC(=O)O (relative stereo)

# Same assay, conditions: pH 7.5, Table II, (per mole per second); read-out: kobs/I, second order rate constant of inactivation of the enzyme
row,Structure (SMILES),kinact/KI
1,CCC(NC(=O)N1C(=O)C(C)(CC)C1Oc1ccc(C(=O)O)cc1)c1ccc2occc2c1 (stereo not shown),750000 M⁻¹ s⁻¹
2,CCC1C(=O)N(C(=O)Nc2ccc(C(=O)O)cc2)C1Oc1ccc(C(=O)O)cc1 (stereo not shown),13600 M⁻¹ s⁻¹
3,CCC1(CC)C(=O)N(C(=O)NCc2ccc(-c3ccccc3)cc2)C1Oc1ccc(C(=O)CCC(=O)O)cc1 (stereo not shown),107000 M⁻¹ s⁻¹
4,CCC1(CC)C(=O)N(C(=O)NCc2ccc3cc4ccccc4cc3c2)C1Oc1ccc(C(=O)O)cc1 (stereo not shown),36200 M⁻¹ s⁻¹
5,CCC1(CC)C(=O)N(C(=O)NC(C)c2ccc(C3CCCCC3)c(Cl)c2)C1Oc1ccc(C(=O)O)cc1 (stereo not shown),20800 M⁻¹ s⁻¹
6,CCCC(NC(=O)N1C(=O)C(CC)(COC)C1Oc1ccc(C(=O)O)cc1)c1ccccc1 (stereo not shown),75000 M⁻¹ s⁻¹
7,CCC1(CC)C(=O)N(C(=O)NCc2ccc(C(=O)NS(=O)(=O)c3ccc(Cl)cc3)cc2)C1Oc1ccc(C(=O)O)cc1 (stereo not shown),1730 M⁻¹ s⁻¹

# Other lines, results leading:
row,kinact/KI,Structure (SMILES)
1,9980 M⁻¹ s⁻¹,CCC1(CC)C(=O)N(C(=O)NCc2ccc(N(C)C)cc2)C1Oc1ccc(C(=O)O)cc1 (stereo not shown)
2,12500 M⁻¹ s⁻¹,CCC1(C)C(=O)N(C(=O)NCc2ccccc2)C1Oc1ccc(C(N)=O)cc1 (stereo not shown)
3,11300 M⁻¹ s⁻¹,CCC1(C)C(=O)N(C(=O)NCc2ccc(OC)c(OC)c2)C1Oc1ccc(C(=O)O)cc1 (stereo not shown)
4,55000 M⁻¹ s⁻¹,CCCC1(CC)C(=O)N(C(=O)NCc2cccc(C(F)(F)F)c2)C1Oc1ccc(C(=O)O)cc1 (stereo not shown)
5,5080 M⁻¹ s⁻¹,CCC1(CC)C(=O)N(C(=O)NCc2ccc([N+](=O)[O-])cc2)C1Oc1ccc(C(=O)O)cc1 (stereo not shown)
6,5000 M⁻¹ s⁻¹,CCCC1C(=O)N(C(=O)NCc2ccccc2)C1Oc1ccc(C(=O)O)cc1 (stereo not shown) [Table II: C3 H7; H; O-(4-COOHPh); CH2 Ph]
7,1500 M⁻¹ s⁻¹,CCC1(CC)C(=O)N(C(=O)NCc2ccc(C(=O)O)cc2)C1Oc1ccccc1 (stereo not shown)
8,4000 M⁻¹ s⁻¹,CCC1C(=O)N(C(=O)NCc2ccccc2)C1Oc1ccc(C(=O)O)cc1 (stereo not shown) [Table II: C2 H5; H; O-(4-COOHPh); CH2 Ph]
9,2500 M⁻¹ s⁻¹,CCCC1(CCC)C(=O)N(C(=O)NCc2ccccc2)C1Oc1ccc(C(=O)O)cc1 (stereo not shown)
10,1700 M⁻¹ s⁻¹,CCC1(CC)C(=O)N(C(=O)NCc2ccccc2)C1Oc1ccc([N+](C)(C)C)cc1 (stereo not shown)
11,2000 M⁻¹ s⁻¹,CCC1(CC)C(=O)N(C(=O)NCc2ccccc2)C1Oc1ccc(C(=O)N2CCC[C@H]2C(=O)O)cc1 (stereo partly shown) [Table II: C2 H5; C2 H5; drawing 37; CH2 Ph]
12,1900 M⁻¹ s⁻¹,CCC1(COC)C(=O)N(C(=O)NCc2ccccc2)C1Oc1ccc(C(=O)O)cc1 (stereo not shown)
13,2960 M⁻¹ s⁻¹,CCC1(CC)C(=O)N(C(=O)NCc2ccccc2)C1Oc1ccccc1CO (stereo not shown)
14,5400 M⁻¹ s⁻¹,C=CCC1C(=O)N(C(=O)NCc2ccccc2)C1Oc1ccc(C(=O)O)cc1 (stereo not shown)

# Same assay, conditions: pH 7.5, read-out: kobs/I, second order rate constant of inactivation of the enzyme
row,Structure (SMILES),kinact/KI
1,CCO[C@@H]1[C@@H](CC)C(=O)N1C(C)=O (relative stereo) [Table I: H; C2 H5 (trans); OC2 H5; COCH3],1670 M⁻¹ s⁻¹
2,CCC1C(=O)N(C(C)=O)C1OC(C)=O (stereo not shown) [Table I: H; C2 H5; OCOCH3; COCH3],15100 M⁻¹ s⁻¹
3,CC[C@H]1C(=O)N(S(=O)(=O)c2ccc(C)cc2)[C@H]1C(=O)N(C)CC(=O)O (relative stereo),165 M⁻¹ s⁻¹
4,CC[C@H]1C(=O)N(C(C)=O)[C@@H]1Oc1ccccc1 (relative stereo) [Table I: H; C2 H5 (trans); OPh; COCH3],5270 M⁻¹ s⁻¹
5,CCC1C(=O)N(C(=O)CCC(=O)O)C1OC(C)=O (stereo not shown),2250 M⁻¹ s⁻¹
